Assay results taken from PubChem BioAssay (NCI).
“And” between values parts separate entries of the source, which are not always exact repeats. Identical values can stand only once.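 96-well plates; 48 h exposure; 5 concentrations. Endpoints by linear interpolation between flanking doses. Not reached: highest tested concentration assigned. GI50 = concentration required for 50% inhibition of growth. TGI denotes the concentration required for complete inhibition of growth.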

How the values were obtained:
Assay in all cases: growth of human tumour cells (NCI), 48 h
T-47D breast = tested on: T-47D breast
UACC-62 melanoma = tested on: UACC-62 melanoma
SW-620 colon = tested on: SW-620 colon
MDA-MB-231 breast = tested on: MDA-MB-231 breast
MOLT-4 leukemia = tested on: MOLT-4 leukemia
SF-539 CNS = tested on: SF-539 CNS
HOP-62 NSCLC = tested on: HOP-62 NSCLC
DU-145 prostate = tested on: DU-145 prostate
IGROV1 ovarian = tested on: IGROV1 ovarian
HL-60(TB) leukemia = tested on: HL-60(TB) leukemia

| SMILES | TGI (T-47D breast) | TGI (UACC-62 melanoma) | TGI (SW-620 colon) | TGI (MDA-MB-231 breast) | TGI (MOLT-4 leukemia) | TGI (SF-539 CNS) | TGI (HOP-62 NSCLC) | TGI (DU-145 prostate) | TGI (IGROV1 ovarian) | TGI (HL-60(TB) leukemia) | GI50 (T-47D breast) | GI50 (UACC-62 melanoma) | GI50 (SW-620 colon) | GI50 (MDA-MB-231 breast) | GI50 (MOLT-4 leukemia) | GI50 (SF-539 CNS) | GI50 (HOP-62 NSCLC) | GI50 (DU-145 prostate) | GI50 (IGROV1 ovarian) | GI50 (HL-60(TB) leukemia) |
| --- | --- | --- | --- | --- | --- | --- | --- | --- | --- | --- | --- | --- | --- | --- | --- | --- | --- | --- | --- | --- |
| C=C(C)[C@@H]1CC[C@]2(C)CC[C@]3(C)[C@H](CC[C@@H]4[C@@]5(C)CC[C@H](O)C(C)(C)[C@@H]5CC[C@]43C)[C@@H]12 | > 100 µM | > 100 µM | > 72.3 µM | > 100 µM | > 70.3 µM | > 100 µM | > 100 µM | > 100 µM | > 100 µM | > 100 µM |  |  |  |  |  |  |  |  |  |  |
| C=C1C(=O)O[C@H]2[C@H]1CC/C(CNC(=O)/C=C/c1cc(OC)c(OC)c(OC)c1)=C\CC[C@@]1(C)O[C@@H]21 | 14.8 µM | 2.92 µM | 2.49 µM | 14.1 µM | 6.22 µM | 5.93 µM | 21.9 µM | 17.3 µM | 13.9 µM | 3.3 µM | 2.25 µM | 0.73 µM | 0.615 µM | 3.01 µM | 2.09 µM | 2 µM | 5.29 µM | 4.95 µM | 3.22 µM | 0.925 µM |
| O=c1[nH]nnc2c1ncn2C1OC(CO)C(O)C1O (stereo unspecified) | > 100 µM | > 100 µM | > 100 µM | 76.9 µM | 36 µM | > 100 µM | > 100 µM | > 100 µM | > 100 µM | 83.3 µM | 38.8 µM | 4.95 µM | 10.6 µM | 4.91 µM | 2.07 µM | 14.5 µM | 10.7 µM | 1.38 µM | 2.96 µM | 1.39 µM |
| CCOC(=O)Nc1ccc2c(c1)/C(=N\NC(N)=S)c1ccccc1-2 | 9.84 µM | 4.77 µM | 32.6 µM | > 54.6 µM | 13.2 µM | 17.3 µM | 22.6 µM | 20 µM | 28.1 µM | 16.1 µM | 2.48 µM | 2.03 µM | 5.91 µM | 3.48 µM | 2.83 µM | 3.75 µM | 4.9 µM | 5.15 µM | 5.88 µM | 4.24 µM |
| COc1ccc2[nH]cc(-c3ccc(-c4c[nH]c5ccc(OC)cc45)s3)c2c1 | 41.5 µM | 30.8 µM | 8.15 µM | 8.55 µM | 6.95 µM | 10.7 µM | 10.5 µM | 18.4 µM | 51 µM | 6.27 µM | 11.1 µM | 13.3 µM | 2.94 µM | 2.88 µM | 1.16 µM | 3.41 µM | 4.67 µM | 4.87 µM | 8.72 µM | 1.59 µM |
| O=c1[nH]c(=O)c2cn[nH]c2[nH]1 | > 100 µM | > 100 µM | > 100 µM | > 100 µM | > 100 µM | > 100 µM | > 100 µM | > 100 µM | > 100 µM | > 100 µM | > 100 µM | > 100 µM | > 100 µM | > 100 µM | > 100 µM | > 100 µM | > 100 µM | > 100 µM | > 100 µM | > 100 µM |
| CC[C@@H]1c2c(C#N)ncn2-c2cnc(Nc3ccc(C(=O)NC4CCN(C5CCN(CC6CC6)CC5)CC4)cc3OC)nc2N1C1CCCC1 | 2.88 µM | 1.79 µM | 1.76 µM and 1.78 µM | 1.31 µM and 0.219 µM | 1.51 µM | 0.888 µM | 1.79 µM | 0.072 µM and 0.246 µM | 1.36 µM | 0.104 µM | 1.3 µM | 0.372 µM | 0.0308 µM and 0.0327 µM | 0.0631 µM and 0.0382 µM | 0.037 µM | 0.0493 µM | 0.0403 µM | 0.0235 µM and 0.0353 µM | 0.0358 µM | 0.0249 µM |
| CN(CCO)CC[C@H](CSc1ccccc1)Nc1ccc(S(=O)(=O)NC(=O)c2ccc(N3CCC([C@@H](O)c4ccccc4-c4ccc(Cl)cc4)CC3)cc2)cc1S(=O)(=O)C(F)(F)F | 59.6 µM | 4.13 µM | 8.91 µM | 0.936 µM | 1.11 µM | 8 µM | 35.5 µM | > 100 µM | 6.63 µM | 8.1 µM | 4.26 µM | 1.8 µM | 2.43 µM | 0.235 µM | 0.0719 µM | 2.67 µM | 5.9 µM | 21 µM | 2.6 µM | 0.886 µM |
| O.O.[NH-]C1(C(=O)O)CCCC1.[NH-]C1(C(=O)O)CCCC1.[Ni+2] | > 100 µM | > 100 µM | > 100 µM | > 100 µM | > 100 µM | > 100 µM | > 100 µM | > 100 µM | > 100 µM | > 100 µM | > 100 µM |  |  | > 100 µM |  |  |  | > 100 µM |  |  |
| O=C1C(Cl)=C(Nc2cccc(Cl)c2)C(=O)N1Cc1ccc(Cl)cc1 | 34 µM | 4.68 µM | 9.97 µM | 1.22 µM | > 100 µM | 2.37 µM | 13.9 µM | 11.4 µM | > 39.3 µM | 15.7 µM | 3.38 µM | 0.779 µM | 0.323 µM | 0.216 µM | 0.513 µM | 0.196 µM | 1.53 µM | 2.72 µM | 1.19 µM | 1.65 µM |
| COc1ccc(-c2nn(-c3cccc(Cl)c3)cc2-c2cc(-c3cccs3)[nH]c(=S)n2)cc1 | 34.6 µM | 19.2 µM | 22.3 µM | 26 µM | 25.2 µM | 19.7 µM | 22.1 µM | 72.5 µM | 15.3 µM | 13.2 µM | 4.16 µM | 2.78 µM | 3.79 µM | 3.52 µM | 3.03 µM | 4.7 µM | 7.14 µM | 5.49 µM | 3.61 µM | 3.49 µM |
| ClCc1cccc2c(CCl)cccc12 | 10.5 µM | 23.3 µM | 19.1 µM | 39 µM | > 100 µM | 11.7 µM | 10.2 µM | 4.08 µM |  | > 100 µM | 1.81 µM | 3.25 µM | 3.4 µM | 13 µM | 3.98 µM | 2.86 µM | 3.24 µM | 1.76 µM |  | 4.49 µM |
